Source: patent publication US8722849B2, “Polypeptides” (Novo Nordisk A/S, priority 2011, dated 2014)
pEC50: −log10 of the molar value. ≈ marks a conversion by molar mass, not a printed value. Read-outs that look alike come from different tables or passages of the source. Starred links: 1 amine or outer side, 2 acyl side, 3 side chain; linkers in the order of their positions; H or OH if unused. Positions of bridges follow the written chain, without caps; N, C: chain ends. Non-standard residues stand in square brackets, D forms with d. Residues, ends and D or L forms follow the SMILES beside them. *: point of attachment. C20 diacid = O=C(O)CCCCCCCCCCCCCCCCCCC(=O)*; C18 diacid = O=C(O)CCCCCCCCCCCCCCCCC(=O)*; γGlu = O=C(O)[C@H](CCC(=O)[*:2])N[*:1]; Orn = NCCC[C@H](N)C(=O)O; AEEA = NCCOCCOCC(=O)O

Columns and labels:
[1] = Assay (IV) determination of solubility; assay type: physicochemical
How it was run: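 Stock ~500 nmol/ml in water; 1:1 with 100 mM buffer, pH 3.0–8.0 (glycylglycine ≤5.0, bistrispropane ≥6.0); 18 h RT; spin; HPLC quantitation of soluble polypeptide.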

[2] = target: T1, human calcitonin receptor (Homo sapiens, UniProt P30988); assay: Assay (II)a functional CRE-luciferase assay, human calcitonin receptor; assay type: cell-based; conditions: Table 7; human calcitonin (CTa) receptor
T1 construct: expressed in transfected cells; host or cells: BHK570
T1 sequence (P30988 25-474): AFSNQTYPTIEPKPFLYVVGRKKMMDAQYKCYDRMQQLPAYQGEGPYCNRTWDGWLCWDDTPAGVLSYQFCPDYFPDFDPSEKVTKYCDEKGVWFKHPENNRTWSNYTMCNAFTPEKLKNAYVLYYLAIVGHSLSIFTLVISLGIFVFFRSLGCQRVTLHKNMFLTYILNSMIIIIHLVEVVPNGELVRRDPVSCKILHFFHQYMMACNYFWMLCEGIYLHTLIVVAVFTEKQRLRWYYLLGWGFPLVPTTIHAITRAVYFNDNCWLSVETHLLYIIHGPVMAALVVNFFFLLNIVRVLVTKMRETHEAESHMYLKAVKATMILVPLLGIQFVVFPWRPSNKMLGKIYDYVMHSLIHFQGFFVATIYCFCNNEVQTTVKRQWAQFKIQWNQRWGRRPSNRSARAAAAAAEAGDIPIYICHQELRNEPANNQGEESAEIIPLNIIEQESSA

food intake = assay: Assay (I) efficacy testing on appetite (food intake), ad libitum fed rat model; assay type: in vivo, Sprague Dawley (SD) rats; conditions: 3 nmol/kg
How it was run: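 Food consumption was logged per animal every hour up to 7 h and again at 24 h (occasionally 48 h) after a single 0.01–3 mg/kg dose, given sc, po or ip at dark-phase onset. Ad libitum fed SD rats, 200–250 g, kept on inverted light/dark cycle; vehicle group included, outliers removed by Grubbs test.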

[3] = target: T2, human amylin receptor (amylin 3(a) receptor: human calcitonin receptor + RAMP-3) (Homo sapiens, UniProt O60896+P30988); assay: Assay (II)a functional CRE-luciferase assay, human amylin receptor; assay type: cell-based; conditions: Table 2; BHK amylin 3(a)-receptor/CRE-luc cells
T2 construct: expressed in transfected cells; host or cells: BHK570
T2 sequence (P30988 25-474): T1 sequence (P30988 25-474)
T2 sequence (O60896 24-148 partner): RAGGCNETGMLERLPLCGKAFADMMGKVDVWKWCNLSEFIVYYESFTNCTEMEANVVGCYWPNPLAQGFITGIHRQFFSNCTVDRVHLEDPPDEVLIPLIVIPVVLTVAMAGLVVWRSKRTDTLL

[4] = bistrispropane buffer, pH 6, pH 6.0, read-out: Solubility pH 6.0
[5] = bistrispropane buffer, pH 6.5, pH 6.5, read-out: Solubility pH 6.5
[6] = bistrispropane buffer, pH 7, pH 7.0, 18 hours at room temperature, Table 3, read-out: Solubility pH 7.0
[7] = bistrispropane buffer, pH 7, pH 7.0, read-out: Solubility pH 7.0
[8] = bistrispropane buffer, pH 7.5, pH 7.5, read-out: Solubility pH 7.5
[9] = bistrispropane buffer, pH 8, pH 8.0, read-out: Solubility pH 8.0
[10] = glycylglycine buffer, pH 3, pH 3.0, read-out: Solubility pH 3.0
[11] = glycylglycine buffer, pH 4, pH 4.0, 18 hours at room temperature, Table 2, read-out: Solubility pH 4.0
[12] = glycylglycine buffer, pH 4, pH 4.0, read-out: Solubility pH 4.0
[13] = glycylglycine buffer, pH 5, pH 5.0, read-out: Solubility pH 5.0

Row | solubility at 18 h [1, 4] [µM] | solubility at 18 h [1, 5] [µM] | solubility at 18 h [1, 6] [µM] | solubility at 18 h [1, 7] [µM] | solubility at 18 h [1, 8] [µM] | solubility at 18 h [1, 9] [µM] | solubility at 18 h [1, 10] [µM] | solubility at 18 h [1, 11] [µM] | solubility at 18 h [1, 12] [µM] | solubility at 18 h [1, 13] [µM] | pEC50 [2] | pEC50 [3] | SMILES | Food intake reduction 0-24 h 3 nmol/kg (%) (food intake) | Food intake reduction 24-48 h 3 nmol/kg (%) (food intake)
1 | > 200 | > 200 | > 200 | > 200 | > 200 | 197 (≈ 992 µg/mL) | > 200 | > 200 | > 200 | > 200 | 9.16 | 10.53 | CC[C@H](C)[C@H](NC(=O)[C@@H]1CCCN1C(=O)CNC(=O)[C@H](Cc1ccccc1)NC(=O)[C@H](CC(N)=O)NC(=O)[C@H](CC(N)=O)NC(=O)[C@H](CO)NC(=O)[C@H](CO)NC(=O)[C@H](CCCNC(=N)N)NC(=O)[C@H](Cc1c[nH]cn1)NC(=O)[C@H](CC(C)C)NC(=O)[C@H](Cc1ccccc1)NC(=O)[C@H](CCC(=O)O)NC(=O)[C@H](C)NC(=O)[C@H](CC(C)C)NC(=O)[C@H](CCCNC(=N)N)NC(=O)[C@H](CCC(N)=O)NC(=O)[C@@H](NC(=O)[C@H](C)NC(=O)[C@@H]1CSSC[C@H](NC(=O)[C@H](CCCN)NC(=O)[C@@H](CCCNC(=N)N)NC(=O)[C@@H](CCCNC(=N)N)NC(=O)COCCOCCNC(=O)COCCOCCNC(=O)CC[C@H](NC(=O)CCCCCCCCCCCCCCCCC(=O)O)C(=O)O)C(=O)N[C@@H](CC(N)=O)C(=O)N[C@@H]([C@@H](C)O)C(=O)N[C@@H](C)C(=O)N[C@@H]([C@@H](C)O)C(=O)N1)[C@@H](C)O)C(=O)N[C@@H](CC(C)C)C(=O)N1CCC[C@H]1C(=O)N1CCC[C@H]1C(=O)N[C@H](C(=O)N[C@@H](CC(N)=O)C(=O)N[C@H](C(=O)NCC(=O)N[C@@H](CO)C(=O)N[C@@H](CC(N)=O)C(=O)N[C@H](C(=O)N[C@@H](Cc1ccc(O)cc1)C(N)=O)[C@@H](C)O)C(C)C)[C@@H](C)O [Example 120, N-alpha-[2-(2-{2-[2-(2-{2-[(S)-4-Carboxy-4-(17-carboxyheptadecanoylamino)butyrylamino]ethoxy}ethoxy)acetylamino]ethoxy}ethoxy)acetyl]-D-Arg-D-Arg-[Orn1,Glu14,His17,Arg18]-pramlintide] ({C18 diacid-γGlu-AEEA-AEEA}-[dR][dR][Orn]CNTATCATQRLAEFLHRSSNNFGPILPPTNVGSNTY-NH2; disulfide 4-9 (inferred); C-terminus assumed) | 53 | 2
2 | > 200 | 153 (≈ 683 µg/mL) | 191 (≈ 853 µg/mL) | 191 (≈ 853 µg/mL) | > 200 | > 200 | > 200 | > 200 | > 200 | > 200 | 9.90 | 9.88 | CC[C@H](C)[C@H](NC(=O)[C@@H]1CCCN1C(=O)CNC(=O)[C@H](Cc1ccccc1)NC(=O)[C@H](CC(N)=O)NC(=O)[C@H](CC(N)=O)NC(=O)[C@H](CO)NC(=O)[C@H](CO)NC(=O)[C@H](Cc1c[nH]cn1)NC(=O)[C@H](Cc1c[nH]cn1)NC(=O)[C@H](CC(C)C)NC(=O)[C@H](Cc1ccccc1)NC(=O)[C@H](CCC(=O)O)NC(=O)[C@H](C)NC(=O)[C@H](CC(C)C)NC(=O)[C@H](CCCNC(=N)N)NC(=O)[C@H](CCC(N)=O)NC(=O)[C@@H](NC(=O)[C@H](C)NC(=O)[C@@H]1CSSC[C@H](NC(=O)[C@H](Cc2c[nH]cn2)NC(=O)CC[C@H](NC(=O)CCCCCCCCCCCCCCCCCCC(=O)O)C(=O)O)C(=O)N[C@@H](CC(N)=O)C(=O)N[C@@H]([C@@H](C)O)C(=O)N[C@@H](C)C(=O)N[C@@H]([C@@H](C)O)C(=O)N1)[C@@H](C)O)C(=O)N[C@@H](CC(C)C)C(=O)N1CCC[C@H]1C(=O)N1CCC[C@H]1C(=O)N[C@H](C(=O)N[C@@H](CC(N)=O)C(=O)N[C@H](C(=O)NCC(=O)N[C@@H](CO)C(=O)N[C@@H](CC(N)=O)C(=O)N[C@H](C(=O)N[C@@H](Cc1ccc(O)cc1)C(N)=O)[C@@H](C)O)C(C)C)[C@@H](C)O [Example 18, N-alpha-[(S)-4-Carboxy-4-(19-carboxynonadecanoylamino)butyryl]-[His1,Glu14,His17]-pramlintide] ({C20 diacid-γGlu}-HCNTATCATQRLAEFLHHSSNNFGPILPPTNVGSNTY-NH2; disulfide 2-7 (inferred); C-terminus assumed) | 40 | 32
3 | > 200 | > 200 | > 200 | > 200 | > 200 | > 200 | > 200 | > 200 | > 200 | > 200 | 10.06 | 10.08 | CC[C@H](C)[C@H](NC(=O)[C@@H]1CCCN1C(=O)CNC(=O)[C@H](Cc1ccccc1)NC(=O)[C@H](CC(N)=O)NC(=O)[C@H](CC(N)=O)NC(=O)[C@H](CO)NC(=O)[C@H](CO)NC(=O)[C@H](CCCNC(=N)N)NC(=O)[C@H](Cc1c[nH]cn1)NC(=O)[C@H](CC(C)C)NC(=O)[C@H](Cc1ccccc1)NC(=O)[C@H](CCC(=O)O)NC(=O)[C@H](C)NC(=O)[C@H](CC(C)C)NC(=O)[C@H](CCCNC(=N)N)NC(=O)[C@H](CCC(N)=O)NC(=O)[C@@H](NC(=O)[C@H](C)NC(=O)[C@@H]1CSSC[C@H](NC(=O)[C@H](CCC(=O)O)NC(=O)CC[C@H](NC(=O)CCCCCCCCCCCCCCCCCCC(=O)O)C(=O)O)C(=O)N[C@@H](CC(N)=O)C(=O)N[C@@H]([C@@H](C)O)C(=O)N[C@@H](C)C(=O)N[C@@H]([C@@H](C)O)C(=O)N1)[C@@H](C)O)C(=O)N[C@@H](CC(C)C)C(=O)N1CCC[C@H]1C(=O)N1CCC[C@H]1C(=O)N[C@H](C(=O)N[C@@H](CC(N)=O)C(=O)N[C@H](C(=O)NCC(=O)N[C@@H](CO)C(=O)N[C@@H](CC(N)=O)C(=O)N[C@H](C(=O)N1CCC[C@H]1C(N)=O)[C@@H](C)O)C(C)C)[C@@H](C)O [Example 10, N-alpha-[(S)-4-Carboxy-4-(19-carboxynonadecanoylamino)butyryl]-[Glu1,Glu14,His17,Arg18,Pro37]-pramlintide] ({C20 diacid-γGlu}-ECNTATCATQRLAEFLHRSSNNFGPILPPTNVGSNTP-NH2; disulfide 2-7) | 50 | 40
4 | > 200 | > 200 | > 200 | > 200 | > 200 | > 200 | > 200 | > 200 | > 200 | > 200 | 9.56 | 10.13 | CC[C@H](C)[C@H](NC(=O)[C@@H]1CCCN1C(=O)CNC(=O)[C@H](Cc1ccccc1)NC(=O)[C@H](CC(N)=O)NC(=O)[C@H](CC(N)=O)NC(=O)[C@H](CO)NC(=O)[C@H](CO)NC(=O)[C@H](Cc1c[nH]cn1)NC(=O)[C@H](Cc1c[nH]cn1)NC(=O)[C@H](CC(C)C)NC(=O)[C@H](Cc1ccccc1)NC(=O)[C@H](CCC(=O)O)NC(=O)[C@H](C)NC(=O)[C@H](CC(C)C)NC(=O)[C@H](CCCNC(=N)N)NC(=O)[C@H](CCC(N)=O)NC(=O)[C@@H](NC(=O)[C@H](C)NC(=O)[C@@H]1CSSC[C@H](NC(=O)[C@H](CCCCN)NC(=O)[C@H](CCC(=O)O)NC(=O)CC[C@H](NC(=O)CCCCCCCCCCCCCCCCC(=O)O)C(=O)O)C(=O)N[C@@H](CC(N)=O)C(=O)N[C@@H]([C@@H](C)O)C(=O)N[C@@H](C)C(=O)N[C@@H]([C@@H](C)O)C(=O)N1)[C@@H](C)O)C(=O)N[C@@H](CC(C)C)C(=O)N1CCC[C@H]1C(=O)N1CCC[C@H]1C(=O)N[C@H](C(=O)N[C@@H](CC(N)=O)C(=O)N[C@H](C(=O)NCC(=O)N[C@@H](CO)C(=O)N[C@@H](CC(N)=O)C(=O)N[C@H](C(=O)N[C@@H](Cc1ccc(O)cc1)C(N)=O)[C@@H](C)O)C(C)C)[C@@H](C)O [Example 42, N-alpha-[(S)-4-Carboxy-4-(17-carboxyheptadecanoylamino)butyryl]-Glu-[Glu14,His17]-pramlintide] ({C18 diacid-γGlu}-EKCNTATCATQRLAEFLHHSSNNFGPILPPTNVGSNTY-NH2; disulfide 3-8 (inferred)) | 45 | 5
